In test [1] the target is T1, histone deacetylase, subtype 1 (HDAC1) (Homo sapiens, UniProt Q13547).
T1 construct: Flag; made in house
Put plainly: HDAC1-Flag assay (in vitro fluorescent deacetylation assay). It counts as biochemical. To be noted: epitope-tagged human HDAC1 complex, substrate at Km, mean ± spread (N), read-out: HDAC Inhibition (IC50) nm. As to the method: Novel compounds were tested for their ability to inhibit histone deacetylase, subtype 1 (HDAC1) using an in vitro deacetylation assay. The enzyme source for this assay was an epitope-tagged human HDAC1 complex immuno-purified from stably expressing mammalian cells. The substrate consisted of a commercial product containing an acetylated lysine side chain (BIOMOL Research Laboratories, Inc., Plymouth Meeting, Pa.). Upon deacetylation of the substrate by incubation with the purified HDAC1 complex, a fluorophore is produced that is directly proportional to the level of deacetylation.

Test [2] has as its system murine erythroleukemia cell line SC9. Put plainly: MTS assay (Cell Titer 96 Aqueous One Solution Cell Proliferation Assay). To be noted: Mus musculus; SC9 cells, 48 hours incubation with increasing concentrations, inhibition of proliferation; mean ± spread (N). The format is cell-based. As to the method: The novel compounds of the present invention were tested for their ability to inhibit proliferation of the murine erythroleukemia cell line SC9.
The MTS assay, also referred to as the Cell Titer 96 Aqueous One Solution Cell Proliferation Assay, is a colorimetric method for determining the number of viable cells in proliferation, cytotoxicity or chemosensitivity assays. The MTS reagent contains a novel tetrazolium compound [3-(4,5-dimethylthiazol-2-yl)-5-(3-carboxymethoxyphenyl)-2-(4-sulfophenyl)-2H-tetrazolium, inner salt] and electron coupling reagent (phenazine ethosulfate; PES). Murine erythroleukemia cells (SC-9) were incubated with vehicle or increasing concentrations of compound for 48 hours. Cell proliferation was quantitated by adding a small amount of the MTS reagent directly to culture wells, incubating for 1-4 hours and then recording the absorbance at 490 nm with a 96-well plate reader. The quantity of formazan product, as measured by […] absorbance, is directly proportional to the number of living cells in culture.
In general terms: Formazan colour is commonly taken as a measure of viable cells.

Where [3] appears, read: Table 1, compounds of formula II.

Like-named read-outs stand apart in the source and are kept apart here.

T1 sequence (Q13547 whole entry): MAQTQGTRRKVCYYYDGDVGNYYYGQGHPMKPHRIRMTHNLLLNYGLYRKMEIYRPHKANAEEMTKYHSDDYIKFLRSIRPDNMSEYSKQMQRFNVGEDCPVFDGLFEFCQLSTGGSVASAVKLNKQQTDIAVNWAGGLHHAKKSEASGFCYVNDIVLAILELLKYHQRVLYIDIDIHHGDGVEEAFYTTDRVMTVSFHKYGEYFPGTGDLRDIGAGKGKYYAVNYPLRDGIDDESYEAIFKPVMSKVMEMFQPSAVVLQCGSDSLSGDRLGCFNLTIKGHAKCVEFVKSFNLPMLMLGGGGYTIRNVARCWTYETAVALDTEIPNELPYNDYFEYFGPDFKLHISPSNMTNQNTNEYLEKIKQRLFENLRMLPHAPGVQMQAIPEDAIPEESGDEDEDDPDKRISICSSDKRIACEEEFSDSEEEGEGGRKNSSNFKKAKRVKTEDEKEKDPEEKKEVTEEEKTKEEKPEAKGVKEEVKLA

Regarding `O=C(CCCCCC(=O)N(CC(=O)Nc1ccc2c(c1)OCO2)CC(=O)Nc1ccc2c(c1)OCO2)NO` [Compound 29, Heptanedioic acid bis-(benzo[1,3]dioxol-5-ylcarbamoylmethyl)-amide hydroxyamide], the IC50 (commonly the concentration that inhibits the measured activity by half) in test [1] (setting [3]) is 22.5 ± 16.2 nM; in test [2], 586 nM.
As to `COc1ccc2nc(NC(=O)CN(CC(=O)Nc3nc4ccc(OC)cc4s3)C(=O)CCCCCC(=O)NO)sc2c1` [Compound 34, Heptanedioic acid bis-[(6-methoxy-benzothiazol-2-ylcarbamoyl)-methyl]-amide hydroxyamide], the IC50 in test [1] (setting [3]) worked out at 7.6 ± 5.6 nM; in test [2], 397 ± 98.2 nM.
For `O=C(CCCCCC(=O)N(CC(=O)Nc1nc2ccc(Cl)cc2s1)CC(=O)Nc1nc2ccc(Cl)cc2s1)NO` [Compound 35, Heptanedioic acid bis-[(6-chloro-benzothiazol-2-ylcarbamoyl)-methyl]-amide hydroxyamide], the concentration for half-maximal inhibition (IC50) amounted to 10.6 ± 7.7 nM in test [1] (setting [3]) and 645 nM in test [2].
In the same order, the values of `Cc1cccc2sc(NC(=O)CN(CC(=O)Nc3nc4c(C)cccc4s3)C(=O)CCCCCC(=O)NO)nc12` [Compound 36, Heptanedioic acid bis-[(4-methyl-benzothiazol-2-ylcarbamoyl)-methyl]-amide hydroxyamide] are 14.5 ± 4.9 nM and 275 ± 19 nM.
In the same order, the values of `O=C(CCCCCC(=O)N(CC(=O)NC1CCc2ccccc21)CC(=O)NC1CCc2ccccc21)NO` (stereo not shown) [Compound 37, Heptanedioic acid bis-(indan-1-ylcarbamoylmethyl)-amide hydroxyamide] are 71 ± 1.4 nM and 388 nM.
The like results for `O=C(CCCCCC(=O)N(CC(=O)Nc1nc2ccc(F)cc2s1)CC(=O)Nc1nc2ccc(F)cc2s1)NO` [Compound 39, Heptanedioic acid bis-[(6-fluoro-benzothiazol-2-ylcarbamoyl)-methyl]-amide hydroxyamide] were, in that order, 31.5 ± 12 nM and 346 nM.
As for `O=C(CCCCCCN(CC(=O)Nc1ccccc1)CC(=O)Nc1ccccc1)NO` [Compound 41, 7-(Bis-phenylcarbamoylmethyl-amino)-heptanoic acid hydroxyamide], the half-maximal inhibitory concentration (IC50) came to 18.5 ± 3.5 nM in test [1] (Table 2, compounds of formula III) and 332 nM in test [2].
For the molecule `O=C(CCCCCCN(CCc1ccccc1)Cc1ccccc1)NO` [Compound 81], the IC50 in test [1] (Table 4, compounds of formula V) amounted to 159 ± 14.1 nM; in test [2], 934 nM.

(Values after US20090023718A1 (Aton Pharma, Inc., priority 2003, published 2009).)
